Counter-ions that a name gives are not always drawn.
How the values were obtained:
Type in all cases: biochemical
FLT3 = FLT3 (Homo sapiens (Human), UniProt P36888); assay: FLT3 inhibition assay (Z-Lyte); details: read-out: Flt3 IC50 Ranges
Procedure: The enzymatic activity of FLT3 was determined using the Z-Lyte assay kit from Invitrogen (Invitrogen cat #PV3191). […] The % inhibition values were determined according to the manufacturer's directions and IC50 values were obtained using a non-linear 4 point logistic curve fit (XLfit4, IDBS).

Aurora B = Aurora B (Homo sapiens (Human), UniProt Q96GD4); assay: Aurora B inhibition assay (Z-Lyte); details: read-out: Aurora B IC50 Ranges
Procedure: Aurora B inhibition was determined using the Z-Lyte assay kit from Invitrogen. […] The % inhibition values were determined according to the manufacturer's directions and IC50 values were obtained using a non-linear 4 point logistic curve fit (XLfit4, IDBS)

human PLK4 = human PLK4 (Homo sapiens (Human), UniProt O00444); assay: PLK4 inhibition assay (indirect ELISA); details: read-out: PLK4 IC50 Ranges
Chain of human PLK4 (O00444 1-391): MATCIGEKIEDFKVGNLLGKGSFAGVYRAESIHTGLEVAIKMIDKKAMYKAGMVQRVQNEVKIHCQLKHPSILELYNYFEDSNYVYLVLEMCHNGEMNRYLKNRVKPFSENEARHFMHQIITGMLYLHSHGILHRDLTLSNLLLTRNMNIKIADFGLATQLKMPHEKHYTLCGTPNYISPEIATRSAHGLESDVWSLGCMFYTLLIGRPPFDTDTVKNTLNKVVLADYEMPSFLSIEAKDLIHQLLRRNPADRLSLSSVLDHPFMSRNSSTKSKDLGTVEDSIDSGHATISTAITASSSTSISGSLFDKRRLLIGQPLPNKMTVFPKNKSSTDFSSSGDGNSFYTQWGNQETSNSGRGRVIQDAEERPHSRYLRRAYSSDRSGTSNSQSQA
Procedure: PLK4 activity was measured using an indirect ELISA detection system. […] The colourimetric reaction was allowed to continue for 5 minutes, followed by addition of stop solution (0.5 N sulphuric acid), and quantified by detection at 450 nm with either a monochromatic or filter based plate reader (Molecular Devices M5 or Beckman DTX880, respectively).
Compounds were pre-incubated in the presence of enzyme for 15 minutes prior to addition of ATP and the activity remaining quantified using the above described activity assay. […] The IC50 value was determined using a non-linear 4 point logistic curve fit (XLfit4, IDBS) with the formula; (A+(B/(1+((x/C)^D)))), where A=background value, B=range, C=inflection point, D=curve fit parameter.

Chain of FLT3 (P36888 27-993): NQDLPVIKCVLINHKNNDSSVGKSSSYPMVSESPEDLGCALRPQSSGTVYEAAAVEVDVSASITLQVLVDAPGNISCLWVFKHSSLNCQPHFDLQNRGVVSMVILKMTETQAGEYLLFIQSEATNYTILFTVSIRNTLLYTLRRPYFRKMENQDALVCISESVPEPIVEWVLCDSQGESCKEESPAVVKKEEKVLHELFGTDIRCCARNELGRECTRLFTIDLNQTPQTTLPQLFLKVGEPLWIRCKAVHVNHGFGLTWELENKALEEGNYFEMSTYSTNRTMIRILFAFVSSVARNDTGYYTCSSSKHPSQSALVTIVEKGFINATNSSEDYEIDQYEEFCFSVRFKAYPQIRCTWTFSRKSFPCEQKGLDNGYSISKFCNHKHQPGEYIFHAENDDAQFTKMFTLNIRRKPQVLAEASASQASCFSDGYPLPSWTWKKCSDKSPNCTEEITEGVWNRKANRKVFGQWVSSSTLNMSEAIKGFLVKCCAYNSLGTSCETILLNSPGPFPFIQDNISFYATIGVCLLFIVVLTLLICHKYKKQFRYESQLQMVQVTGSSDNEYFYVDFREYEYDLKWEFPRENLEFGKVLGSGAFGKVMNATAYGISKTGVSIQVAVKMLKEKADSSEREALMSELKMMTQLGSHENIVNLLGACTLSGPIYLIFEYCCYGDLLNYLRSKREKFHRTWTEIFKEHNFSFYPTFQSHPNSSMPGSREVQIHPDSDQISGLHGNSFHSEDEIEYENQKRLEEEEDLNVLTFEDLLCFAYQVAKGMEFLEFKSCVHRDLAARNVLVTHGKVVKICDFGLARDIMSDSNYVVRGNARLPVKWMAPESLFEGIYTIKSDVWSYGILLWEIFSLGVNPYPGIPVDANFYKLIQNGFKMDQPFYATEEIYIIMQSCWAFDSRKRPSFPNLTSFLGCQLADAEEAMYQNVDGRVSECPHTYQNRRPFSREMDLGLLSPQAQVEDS
Chain of Aurora B (Q96GD4 whole entry): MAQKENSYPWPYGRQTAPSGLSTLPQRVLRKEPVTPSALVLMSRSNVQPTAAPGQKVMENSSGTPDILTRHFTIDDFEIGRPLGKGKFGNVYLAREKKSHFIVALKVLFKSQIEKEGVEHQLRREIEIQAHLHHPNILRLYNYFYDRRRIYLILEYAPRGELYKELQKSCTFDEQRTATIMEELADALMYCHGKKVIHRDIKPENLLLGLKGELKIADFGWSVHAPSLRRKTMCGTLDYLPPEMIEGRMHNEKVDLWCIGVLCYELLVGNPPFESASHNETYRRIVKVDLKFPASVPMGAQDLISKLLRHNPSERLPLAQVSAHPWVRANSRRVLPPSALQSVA

SMILES | IC50 (FLT3) [nM] | IC50 (Aurora B) [nM] | IC50 (human PLK4) [nM]
COc1ccc2c(c1)[C@]1(C[C@H]1c1ccc3c(-c4ccc5c(c4)CNCC5)n[nH]c3c1)C(=O)N2 [Example A71, (1R,2S)-5′-methoxy-2-(3-(1,2,3,4-tetrahydroisoquinolin-7-yl)-1H-indazol-6-yl)spiro[cyclopropane-1,3′-indolin]-2′-one 2,2,2-trifluoroacetate salt] | 100 to 1000 | < 100 | < 100
CCN1CCN(c2ccc(-c3n[nH]c4cc([C@@H]5C[C@@]56C(=O)Nc5ccc(OC)cc56)ccc34)cc2)CC1 [Example A99, (1R,2S)-2-(3-(4-(4-ethylpiperazin-1-yl)phenyl)-1H-indazol-6-yl)-5′-methoxyspiro[cyclopropane-1,3′-indolin]-2′-one 2,2,2-trifluoroacetate] | < 100 | < 100 | < 100
COc1ccc2c(c1)[C@]1(C[C@H]1c1ccc3c(/C=C/c4ccc(CN5CC[C@@H](F)C5)cc4)n[nH]c3c1)C(=O)N2 [Example A112, (1R,2S)-(E)-2-(3-(4-(((R)-3-fluoropyrrolidin-1-yl)methyl)styryl)-1H-indazol-6-yl)-5′-methoxyspiro[cyclopropane-1,3′-indolin]-2′-one 2,2,2-trifluoroacetate] | 100 to 1000 | < 100 | < 100
COc1ccc2c(c1)[C@]1(C[C@H]1c1ccc3c(-c4ccc(N5C[C@@H](C)N[C@@H](C)C5)cc4)n[nH]c3c1)C(=O)N2 [Example A126, (1R,2S)-2-(3-(4-(cis-3,5-dimethylpiperazin-1-yl)phenyl)-1H-indazol-6-yl)-5′-methoxyspiro[cyclopropane-1,3′-indolin]-2′-one 2,2,2-trifluoroacetate] | 100 to 1000 | < 100 | < 100
COc1ccc2c(c1)[C@]1(C[C@H]1c1ccc3c(-c4ccc(N(C)CCN(C)C)cc4)n[nH]c3c1)C(=O)N2 [Example A129, (1R,2S)-2-(3-(4-((2-(dimethylamino)ethyl)(methyl)amino)phenyl)-1H-indazol-6-yl)-5′-methoxyspiro[cyclopropane-1,3′-indolin]-2′-one 2,2,2-trifluoroacetate] | 100 to 1000 | < 100 | < 100
COCCN1C(=O)[C@@]2(C[C@H]2c2ccc3c(/C=C/c4ccc(CN(C)C)cc4)n[nH]c3c2)c2ccccc21 [Example A131, (1R,2S)-(E)-2-(3-(4-((dimethylamino)methyl)styryl)-1H-indazol-6-yl)-1′-(2-methoxyethyl)spiro[cyclopropane-1,3′-indolin]-2′-one 2,2,2-trifluoroacetate] | > 1000 | < 100 | < 100
COc1ccc2c(c1)[C@]1(C[C@H]1c1ccc3c(/C=C/c4ccc(N5CCN(C)CC5)cc4)n[nH]c3c1)C(=O)N2 [Example A175, (1R,2S)-(E)-5′-methoxy-2-(3-(4-(4-methylpiperazin-1-yl)styryl)-1H-indazol-6-yl)spiro[cyclopropane-1,3′-indolin]-2′-one 2,2,2-trifluoroacetate] | < 100 | < 100 | < 100
COc1ccc2c(c1)[C@]1(C[C@H]1c1ccc3c(-c4ccc(N5CCN(C6CCCC6)CC5)cc4)n[nH]c3c1)C(=O)N2 [Example A192, (1R,2S)-2-(3-(4-(4-cyclopentylpiperazin-1-yl)phenyl)-1H-indazol-6-yl)-5′-methoxyspiro[cyclopropane-1,3′-indolin]-2′-one 2,2,2-trifluoroacetate] | 100 to 1000 | < 100 | < 100
